# Reference: patent US4051253A, “Microbicidal nitrofuryl compounds” (Byk Gulden Lomberg Chemische Fabrik GmbH, priority 1974, dated 1977)
# Like-named read-outs stand apart in the source and are kept apart here.
# Key:
# [1] = test system: Trichomonas foetus; experiment: Infection tests with Trichomonas foetus in mice; format: in vivo; details: for % of Animals Dying After Infection (Mean Value): stomach tube, 3 successive days, NMRI mice
# [2] = in vivo; details: mouse
# [3] = test system: Klebs. pneum. PCI 602; experiment: microbe, parasite or virus in culture; format: cell-based; details: for MBC: read-out: Concentration from which subcultures no longer started; for MIC: read-out: Minimum inhibiting concentration (MHK), series dilution test
# [4] = test system: E. coli 6106; experiment: microbe, parasite or virus in culture; format: cell-based; details: for MIC: read-out: Minimum inhibiting concentration (MHK), series dilution test
# [5] = test system: Ps. aeruginosa 2; experiment: microbe, parasite or virus in culture; format: cell-based; details: for MIC: read-out: Minimum inhibiting concentration (MHK), series dilution test
# [6] = test system: Staph. aur. SG 511; experiment: microbe, parasite or virus in culture; format: cell-based; details: for MIC: read-out: Minimum inhibiting concentration (MHK), series dilution test
# [7] = test system: Staph. aur. PCI 1203; experiment: microbe, parasite or virus in culture; format: cell-based; details: for MBC: read-out: Concentration from which subcultures no longer started; for MIC: read-out: Minimum inhibiting concentration (MHK), series dilution test
# [8] = test system: streptococci group A 807; experiment: microbe, parasite or virus in culture; format: cell-based; details: for MIC: read-out: Minimum inhibiting concentration (MHK), series dilution test
# [9] = test system: streptoc. group B 779; experiment: microbe, parasite or virus in culture; format: cell-based; details: for MBC: read-out: Concentration from which subcultures no longer started; for MIC: read-out: Minimum inhibiting concentration (MHK), series dilution test
# [10] = test system: streptococci group C 805; experiment: microbe, parasite or virus in culture; format: cell-based; details: for MBC: read-out: Concentration from which subcultures no longer started; for MIC: read-out: Minimum inhibiting concentration (MHK), series dilution test
# [11] = test system: enterococci; experiment: microbe, parasite or virus in culture; format: cell-based; details: for MIC: read-out: Minimum inhibiting concentration (MHK), series dilution test
# [12] = test system: C. Albicans 49; experiment: microbe, parasite or virus in culture; format: cell-based; details: Candida albicans; for MIC: read-out: Minimum inhibiting concentration (MHK), series dilution test
# [13] = test system: C. Paracrusei 45; experiment: microbe, parasite or virus in culture; format: cell-based; details: for MBC: read-out: Concentration from which subcultures no longer started; for MIC: read-out: Minimum inhibiting concentration (MHK), series dilution test
# [14] = test system: 9 bacteria and 2 yeast strains; experiment: In vitro tests with 9 bacteria and 2 yeast strains (summary); format: cell-based; details: even with the high concentration of 500 μg/ml
# [15] = test system: Serratia marcescens strain HY/a 21
# [16] = test system: S. typhimurium G 46; details: in vivo
# [17] = subcultures applied after 48 h, read after 24 h
# [18] = 24 h, read-out: Concentration from which subcultures no longer started, subcultures applied after 24 h, read after 24 h
# [19] = 48 h, read-out: Concentration from which subcultures no longer started, subcultures applied after 48 h, read after 48 h
# [20] = read-out: Concentration from which subcultures no longer started, subcultures applied after 24 h, read after 48 h
# [21] = read-out: Concentration from which subcultures no longer started, subcultures applied after 48 h, read after 24 h
structure (smiles),measurement,setting,value
"Cc1ncc([N+](=O)[O-])n1CCO [Metronidazol, reference compound]",% of Animals Dying After Infection (Mean Value),[1]; 6.25 mg/kg,90%
same,% of Animals Dying After Infection (Mean Value),[1]; 12.5 mg/kg,80%
same,% of Animals Dying After Infection (Mean Value),[1]; 25 mg/kg,70%
same,% of Animals Dying After Infection (Mean Value),[1]; 50 mg/kg,15%
same,% of Animals Dying After Infection (Mean Value),[1]; 75 mg/kg,0%
same,% of Animals Dying After Infection (Mean Value),[1]; 100 mg/kg,4%
same,animals survived / survival rate,"[1]; dose of 6.25 mg/kg, mice infected with T. foetus",10%
same,LD50,[2],> 2000 mg/kg
same,MBC,[3]; 24 h,> 500 µg/mL
same,MIC,[3]; 24 h,> 500 µg/mL
same,MBC,[3]; 48 h,> 500 µg/mL
same,MIC,[3]; 48 h,> 500 µg/mL
same,MBC,[3],> 500 µg/mL
same,Concentration from which subcultures no longer started,[3]; [17],> 500 µg/mL
same,MBC,"[4]; Escherichia coli, 6106, 24 h, read-out: Concentration from which subcultures no longer started",> 500 µg/mL
same,MIC,"[4]; Escherichia coli, 6106, 24 h",> 500 µg/mL
same,MBC,"[4]; Escherichia coli, 6106, 48 h, read-out: Concentration from which subcultures no longer started",> 500 µg/mL
same,MIC,"[4]; Escherichia coli, 6106, 48 h",> 500 µg/mL
same,MBC,"[4]; Escherichia coli, 6106, read-out: Concentration from which subcultures no longer started",> 500 µg/mL
same,Concentration from which subcultures no longer started,[4]; [17],> 500 µg/mL
same,MBC,"[5]; Pseudomonas aeruginosa, 2, 24 h, read-out: Concentration from which subcultures no longer started",> 500 µg/mL
same,MIC,"[5]; Pseudomonas aeruginosa, 2, 24 h",> 500 µg/mL
same,MBC,"[5]; Pseudomonas aeruginosa, 2, 48 h, read-out: Concentration from which subcultures no longer started",> 500 µg/mL
same,MIC,"[5]; Pseudomonas aeruginosa, 2, 48 h",> 500 µg/mL
same,MBC,"[5]; Pseudomonas aeruginosa, 2, read-out: Concentration from which subcultures no longer started",> 500 µg/mL
same,Concentration from which subcultures no longer started,[5]; [17],> 500 µg/mL
same,MBC,[6]; [18],> 500 µg/mL
same,MIC,[6]; 24 h,> 500 µg/mL
same,MBC,[6]; [19],> 500 µg/mL
same,MIC,[6]; 48 h,> 500 µg/mL
same,MBC,[6]; [20],> 500 µg/mL
same,MBC,[6]; [21],> 500 µg/mL
same,MBC,[7]; 24 h,> 500 µg/mL
same,MIC,[7]; 24 h,> 500 µg/mL
same,MBC,[7]; 48 h,> 500 µg/mL
same,MIC,[7]; 48 h,> 500 µg/mL
same,MBC,[7],> 500 µg/mL
same,Concentration from which subcultures no longer started,[7]; [17],> 500 µg/mL
same,MBC,[8]; [18],> 500 µg/mL
same,MIC,[8]; 24 h,> 500 µg/mL
same,MBC,[8]; [19],> 500 µg/mL
same,MIC,[8]; 48 h,> 500 µg/mL
same,MBC,[8]; [20],> 500 µg/mL
same,MBC,[8]; [21],> 500 µg/mL
same,MBC,[9]; 24 h,> 500 µg/mL
same,MIC,[9]; 24 h,> 500 µg/mL
same,MBC,[9]; 48 h,> 500 µg/mL
same,MIC,[9]; 48 h,> 500 µg/mL
same,MBC,[9],> 500 µg/mL
same,Concentration from which subcultures no longer started,[9]; [17],> 500 µg/mL
same,MBC,[10]; 24 h,> 500 µg/mL
same,MIC,[10]; 24 h,> 500 µg/mL
same,MBC,[10]; 48 h,> 500 µg/mL
same,MIC,[10]; 48 h,> 500 µg/mL
same,MBC,[10],> 500 µg/mL
same,Concentration from which subcultures no longer started,[10]; [17],> 500 µg/mL
same,MBC,[11]; [18],> 500 µg/mL
same,MIC,[11]; 24 h,> 500 µg/mL
same,MBC,[11]; [19],> 500 µg/mL
same,MIC,[11]; 48 h,> 500 µg/mL
same,MBC,[11]; [20],> 500 µg/mL
same,MBC,[11]; [21],> 500 µg/mL
same,MBC,[12]; [18],> 500 µg/mL
same,MIC,[12]; 24 h,> 500 µg/mL
same,MBC,[12]; [19],> 500 µg/mL
same,MIC,[12]; 48 h,> 500 µg/mL
same,MBC,[12]; [20],> 500 µg/mL
same,MBC,[12]; [21],> 500 µg/mL
same,MBC,[13]; 24 h,> 500 µg/mL
same,MIC,[13]; 24 h,> 500 µg/mL
same,MBC,[13]; 48 h,> 500 µg/mL
same,MIC,[13]; 48 h,> 500 µg/mL
same,MBC,[13],> 500 µg/mL
same,Concentration from which subcultures no longer started,[13]; [17],> 500 µg/mL
same,in vitro antibacterial/antiyeast effect (in words),[14],ineffective
same,"Mutants, Test",[15],5.9 × 10^2 colonies/ml
same,Mutation frequency,[15],3.1 × 10^-6
same,Mutation frequency in test animals,[16],4.6 . 10^-7
